PMC10379611 (International Journal of Molecular Sciences, 2023)
“Also recorded” adds a separate entry of the source.

Tests used:
ABCC4 (MRP4) = target: T1, ABCC4 (MRP4) (Homo sapiens, UniProt O15439); assay: ABCC4 vesicular transport (DHEAS), HEK293 inverted membrane vesicles; format: biochemical; settings: concentrations up to 200 μM
T1 construct: purchased Solvo Biotechnology, Budapest; host or cells: HEK293
T1 sequence (O15439 1-1325): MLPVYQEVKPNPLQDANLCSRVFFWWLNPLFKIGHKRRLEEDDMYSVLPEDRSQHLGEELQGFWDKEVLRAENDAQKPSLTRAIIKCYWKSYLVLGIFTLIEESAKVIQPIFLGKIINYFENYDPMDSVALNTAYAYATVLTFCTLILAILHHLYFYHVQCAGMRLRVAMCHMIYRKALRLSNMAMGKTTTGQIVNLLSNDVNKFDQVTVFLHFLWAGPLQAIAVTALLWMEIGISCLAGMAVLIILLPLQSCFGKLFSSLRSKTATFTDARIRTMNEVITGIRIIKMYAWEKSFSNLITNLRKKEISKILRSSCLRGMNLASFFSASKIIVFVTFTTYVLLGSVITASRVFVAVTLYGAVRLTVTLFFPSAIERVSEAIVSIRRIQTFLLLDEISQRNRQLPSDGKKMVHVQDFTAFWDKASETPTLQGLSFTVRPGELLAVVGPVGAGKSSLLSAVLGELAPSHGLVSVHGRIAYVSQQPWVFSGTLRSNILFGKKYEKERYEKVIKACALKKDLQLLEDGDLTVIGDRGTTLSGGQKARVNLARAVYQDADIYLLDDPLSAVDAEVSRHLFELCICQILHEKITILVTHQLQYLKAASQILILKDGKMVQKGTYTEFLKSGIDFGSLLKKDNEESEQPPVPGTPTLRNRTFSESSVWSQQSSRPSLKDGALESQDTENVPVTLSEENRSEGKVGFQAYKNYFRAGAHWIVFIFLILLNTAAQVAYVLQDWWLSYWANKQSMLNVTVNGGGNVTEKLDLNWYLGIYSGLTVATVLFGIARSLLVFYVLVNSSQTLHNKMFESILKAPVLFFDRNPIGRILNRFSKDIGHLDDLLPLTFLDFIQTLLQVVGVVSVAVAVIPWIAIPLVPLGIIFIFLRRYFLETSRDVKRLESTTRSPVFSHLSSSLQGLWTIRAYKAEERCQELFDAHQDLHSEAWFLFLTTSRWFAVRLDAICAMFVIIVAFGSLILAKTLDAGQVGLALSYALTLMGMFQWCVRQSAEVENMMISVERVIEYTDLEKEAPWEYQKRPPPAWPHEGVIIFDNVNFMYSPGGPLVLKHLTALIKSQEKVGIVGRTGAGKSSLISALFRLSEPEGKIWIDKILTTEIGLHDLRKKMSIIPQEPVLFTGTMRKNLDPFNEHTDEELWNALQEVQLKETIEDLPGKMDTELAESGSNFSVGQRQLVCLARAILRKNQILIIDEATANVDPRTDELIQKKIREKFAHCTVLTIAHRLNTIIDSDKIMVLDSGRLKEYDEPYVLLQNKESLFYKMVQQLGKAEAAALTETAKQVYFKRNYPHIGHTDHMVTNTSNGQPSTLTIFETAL

ABCB1 = ABCB1 (Homo sapiens, UniProt P08183); assay: ABCB1 ATPase activity in Sf9 membrane vesicles; format: biochemical; design: purchased Solvo Biotechnology, Budapest; settings: insect cell membrane vesicles
ABCB1, sequence (P08183 whole entry): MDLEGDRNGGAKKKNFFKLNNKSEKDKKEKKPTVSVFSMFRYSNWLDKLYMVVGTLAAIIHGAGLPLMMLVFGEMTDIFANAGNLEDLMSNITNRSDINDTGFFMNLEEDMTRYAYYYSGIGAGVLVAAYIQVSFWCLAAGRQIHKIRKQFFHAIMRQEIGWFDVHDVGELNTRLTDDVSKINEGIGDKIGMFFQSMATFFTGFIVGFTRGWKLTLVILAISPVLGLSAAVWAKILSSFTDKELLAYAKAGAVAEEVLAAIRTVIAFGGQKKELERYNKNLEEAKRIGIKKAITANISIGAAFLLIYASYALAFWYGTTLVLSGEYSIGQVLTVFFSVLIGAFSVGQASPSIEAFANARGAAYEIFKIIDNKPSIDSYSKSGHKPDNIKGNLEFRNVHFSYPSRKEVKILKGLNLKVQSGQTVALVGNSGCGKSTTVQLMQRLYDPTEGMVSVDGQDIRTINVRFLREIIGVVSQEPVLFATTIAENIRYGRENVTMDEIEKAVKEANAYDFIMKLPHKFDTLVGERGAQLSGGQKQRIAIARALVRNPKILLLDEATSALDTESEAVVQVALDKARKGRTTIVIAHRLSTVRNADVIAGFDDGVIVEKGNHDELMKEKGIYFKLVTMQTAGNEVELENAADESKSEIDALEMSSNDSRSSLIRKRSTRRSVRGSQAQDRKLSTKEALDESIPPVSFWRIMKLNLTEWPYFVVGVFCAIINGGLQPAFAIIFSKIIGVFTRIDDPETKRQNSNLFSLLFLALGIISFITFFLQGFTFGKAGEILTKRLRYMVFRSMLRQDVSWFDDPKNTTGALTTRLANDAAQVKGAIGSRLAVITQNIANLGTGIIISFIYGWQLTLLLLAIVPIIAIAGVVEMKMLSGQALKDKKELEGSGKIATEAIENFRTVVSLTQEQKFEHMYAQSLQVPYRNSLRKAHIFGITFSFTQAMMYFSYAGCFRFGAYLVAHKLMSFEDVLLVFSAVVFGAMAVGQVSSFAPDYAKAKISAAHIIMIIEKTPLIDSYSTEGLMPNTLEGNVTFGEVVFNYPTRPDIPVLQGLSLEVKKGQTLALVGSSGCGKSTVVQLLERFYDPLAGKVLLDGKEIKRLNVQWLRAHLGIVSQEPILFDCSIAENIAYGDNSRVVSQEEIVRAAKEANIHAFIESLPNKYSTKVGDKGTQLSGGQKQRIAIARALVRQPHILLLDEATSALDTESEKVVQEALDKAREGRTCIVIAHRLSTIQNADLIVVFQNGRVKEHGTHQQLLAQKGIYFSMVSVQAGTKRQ
Procedure: (§1) ATPase activity was measured in Sf9 membrane vesicles containing the respective human ABC transporters, as described in our earlier work. For ABCG2, the cholesterol level in the vesicles was increased to the level of mammalian cell membranes to obtain full activity. In brief, membrane vesicles (5 μg protein/sample) were incubated with 3 mM Mg-ATP and various concentrations of test compounds. Background ATPase activity of membranes was determined by applying the general ABC transporter inhibitor sodium orthovanadate (1 mM). Measurements were carried out for 20 min at 37 °C. The amount of phosphate liberated from ATP was detected using a colorimetric method and a VictorX3 plate reader at 660 nm Abs. Reference activators (50 µM verapamil for ABCB1 and 1 µM quercetin for ABCG2) served as positive controls.

ABCG2 = target: T2, ABCG2 (Homo sapiens, UniProt Q9UNQ0); assay: ABCG2 ATPase activity in Sf9 membrane vesicles; format: biochemical; design: purchased Solvo Biotechnology, Budapest; settings: insect cell membrane vesicles
T2 sequence (Q9UNQ0 1-655): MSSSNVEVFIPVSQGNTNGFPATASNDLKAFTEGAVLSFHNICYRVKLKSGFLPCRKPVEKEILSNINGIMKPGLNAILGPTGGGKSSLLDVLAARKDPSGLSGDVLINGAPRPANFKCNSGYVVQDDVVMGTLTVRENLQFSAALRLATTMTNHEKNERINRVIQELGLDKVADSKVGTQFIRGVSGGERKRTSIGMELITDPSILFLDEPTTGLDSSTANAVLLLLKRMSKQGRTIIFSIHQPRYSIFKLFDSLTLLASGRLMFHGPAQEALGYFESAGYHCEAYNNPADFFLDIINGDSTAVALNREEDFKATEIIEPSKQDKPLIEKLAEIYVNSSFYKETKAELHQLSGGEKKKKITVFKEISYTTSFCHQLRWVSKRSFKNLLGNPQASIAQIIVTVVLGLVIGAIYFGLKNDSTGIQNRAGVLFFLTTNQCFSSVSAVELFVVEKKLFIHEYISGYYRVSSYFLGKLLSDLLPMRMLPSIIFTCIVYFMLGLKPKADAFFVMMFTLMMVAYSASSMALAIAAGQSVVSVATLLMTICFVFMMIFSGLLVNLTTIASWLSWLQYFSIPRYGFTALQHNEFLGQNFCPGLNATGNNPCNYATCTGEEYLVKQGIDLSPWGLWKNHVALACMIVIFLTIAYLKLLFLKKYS
Procedure: as §1

OATP1B1 = settings: read-out: IC50 of OATP1B1; rosuvastatin transport; cited from earlier work

Compound | effect on ATP-dependent DHEAS uptake by ABCC4/MRP4 (ABCC4 (MRP4)) | effect on transport-coupled ATPase activity of ABCB1 (ABCB1) | effect on ATPase activity of ABCG2 (ABCG2) | IC50 (OATP1B1) [µM]
O=c1nc(NO)ccn1[C@@H]1O[C@H](CO)[C@@H](O)[C@H]1O [EIDD-1931] | no significant effects | – | – | –
CC(C)C(=O)OC[C@H]1O[C@@H](n2ccc(NO)nc2=O)[C@H](O)[C@@H]1O [EIDD-2801, Molnupiravir] | no significant effects | – | – | –
CC(C)(C)[C@H](NC(=O)C(F)(F)F)C(=O)N1C[C@H]2[C@@H]([C@H]1C(=O)N[C@H](C#N)C[C@@H]1CCNC1=O)C2(C)C [Nirmatrelvir] | – | significantly increased; also recorded: stimulated | no such effect | […]
